Entries after “also recorded” stand apart in the source; their conditions may differ. Where no end group is shown, it is not given here.
Experiments:
C2C12 myoblasts [1] = test: MTT cell viability assay in C2C12 myoblasts; conditions: for Effect: viability (hit direction): screening at 1 μM, hit selection by MAD/quartile/SSMD/robust SSMD
Description: The mouse myoblast C2C12 cell line (ATCC, CRL-1772) was cultured at 37° C. in a 5% CO2 humidified incubator in Dulbecco's modified Eagle medium (DMEM; Thermo Fisher Scientific). For C2C12 cell proliferation, the medium was supplemented with 10% fetal bovine serum (FBS; Thermo Fisher Scientific), 100 units/ml penicillin, and 100 μg/ml streptomycin (1% Pen/Strep; Thermo Fisher Scientific). The proliferation medium was renewed each 2-3 days and confluency was kept below 80%. For differentiation of the C2C12 myoblasts into myotubes, proliferation medium was replaced by differentiation medium when cells reached 80% confluency.
Viability of QSM was assessed using the 3-(4,5-dimethylthiazol-2-yl)-2,5-diphenyltetrazolium bromide (MTT) assay. Briefly, C2C12 myoblasts were seeded in a 96-well plate (3×10^4 cells/well). 24 hours post-seeding, the wells were treated with QSM (1 μM), placebo or positive control (DMSO 2%) and incubated for 24 hours at 37° C. Next, 20 μL of MTT reagent (5 mg/mL; Sigma-Aldrich) was added to each well and the plates were returned to the incubator for 2.5 hours. After incubation, supernatant was removed from the wells and 150 μL of DMSO was added to release and dissolve the formazan crystals. Absorbance was measured at 570 nm using a microplate reader (Thermo Fisher).
The MTT assay is a widely validated and accepted viability assay for screening experiments. In this assay, the reduction of MTT into formazan, catalysed by living cell enzymes, is used as a marker of cell viability. If QSM are cytotoxic or cytostatic towards C2C12 cells, a decrease in MTT reduction is expected (viability less than 100%), while an increased C2C12 proliferation caused by QSM will result in an increased MTT reduction (viability more than 100%).
In a further set of experiments, the dose response effect of QSPs Q22 and Q184 was assessed on MTT reduction of C2C12 myotubes (tables 7.4 and 7.5).

[2] = system: GDF15 production by C2C12 myotubes; test: GDF15 production by C2C12 myotubes (sandwich ELISA), mitochondrial changes; assay type: cell-based, mouse; conditions: for GDF15 secretion, effect relative to median: QSM 1 μM, C2C12 myotubes; for Effect: GDF15 (hit direction): screening at 1 μM
Description: GDF15 levels were determined in the supernatants of C2C12 cells after QSM, placebo or positive control (oligomyin) treatment, using a sandwich ELISA (R&D Systems). A similar protocol as described for the IL-6 determination was used.
GDF15 is considered a useful biomarker for direct or indirect changes in mitochondrial function. Moreover, GDF15 is implicated in muscle wasting diseases like sarcopenia, chronic obstructive pulmonary disease cachexia and critical illness.

C2C12 myoblasts [3] = test: Differentiation of C2C12 myoblasts into myotubes (LADD stain, ImageJ); assay type: cell-based, mouse; conditions: for differentiation capacity relative to the median of all samples: QSM 1 μM at d0 and d3, myotube formation at d6; for Effect: differentiation (hit direction): screening at 1 μM, myotube formation
Description: Differentiation medium consisted of DMEM supplemented with 2% horse serum (HS; Thermo Fisher Scientific) and 1% Pen/Strep. All experiments were done with C2C12 passage numbers below 30.
C2C12 myoblasts (1×10^4 cells/well) were seeded in 48-well plates and incubated until they reached 80% confluency, after which the proliferation medium was removed and replaced by differentiation medium (d0). The differentiation medium was renewed at d3. QSM (1 μM), placebo or positive controls (vitamin D3) were added to the cells together with the differentiation medium at d0 and d3. After 6 days of incubation (d6), myotubes were stained with the combined nuclear and cytoplasmatic LADD Multiple Stain (as described in R. McColl, M. Nkosi, C. Snyman, C. Niesler, Analysis and quantification of in vitro myoblast fusion using the LADD Multiple Stain, Biotechniques 61(6) (2016) 323-326). LADD Multiple Stain is a solution containing toluidine blue (VWR) and basic fuchsin (Fluka) in 30% (v/v) ethanol. The stained myotubes were assessed under a phase-contrast microscope equipped with a camera (Olympus CKX53) at a total magnification of 100×. Five different images were taken per well. The amount of myotube formation was automatically quantified using ImageJ software.
Mimicking the in vivo muscle physiology, C2C12 myoblasts are able to differentiate into myotubes when they are adjacent to each other and a differentiating extracellular medium is present. Muscle wasting diseases are characterized by a decreased myotube formation. To evaluate the effects of QSM on the differentiation capacities of C2C12 myoblasts, the C2C12 cells were treated in differentiation medium with QSM at d0 and d3, and evaluated the myotube formation at d6. At d6, the staining protocol of McColl et al. was used to visualize the myotubes (references see above). The differentiation capacity of all QSM was between 71% (Q013) and 145% (AI-2) relative to the median of all samples (FIG. 1).

C. elegans = C. elegans swimming behaviour (muscle wasting/aging model); assay type: in vivo; set-up: key to Wave initiation rate / Asymmetry / Stretch / Curling / Travel speed / Brush stroke / Activity index: relative to placebo set to 1.0; conditions: DMSO positive control
Text: The C. elegans model is a well-established aging model: they diminish in locomotory vigor as they age, a phenomenon that is attributed to a physical deterioration of muscle and synapses. QSPs were introduced in the medium of living C. elegans. As comparisons, a placebo experiment was used as negative control, while DMSO was used as positive control.
Using automatic, objective imaging software, different swimming behaviour variables associated with this decrease in locomotory vigor or muscle wasting were investigated. Wave initiation rate, travel speed, brush stroke and activity index do decrease with muscle wasting, while body wave number, asymmetry, curling and stretch do increase with muscle wasting, as described in Restif et al., Plos Computational Biology, 2014.
More in particular, the results in these tables show Q184-associated changes in three swimming parameters in wild-type adults at day 3 (Table 9) and day 12 (Table 10) (n=120-170 from 3 independent trials for each condition). Data presented are means±s.e.m (placebo set to 1.0).

[4] = system: IL-6 production by C2C12 myotubes; test: IL-6 production by C2C12 myotubes (sandwich ELISA); assay type: cell-based, mouse; conditions: for Effect: inflammation (IL-6 production, hit direction): screening at 1 μM
Description: C2C12 myoblasts (2.5×10^4 cells/well) were seeded in 96-well plates and incubated until they reached 80% confluency, after which the proliferation medium was removed and replaced by differentiation medium. After 6 days of incubation with daily renewed differentiation medium, the cells were treated with 1 μM of QSM, placebo or positive control (LPS) for 24 hours. IL-6 levels were determined in the supernatants using a sandwich ELISA (eBioscience), using IL-6 capture antibody, blocking solution, samples and standards, IL-6 detection antibody, avidin-horseradish peroxidase and substrate solution which were added sequentially, with washing steps in between. After stopping the reaction with H2SO4 solution, the absorbance was measured at 450 nm and 570 nm (correction wavelength) using a microplate reader (ThermoLab Systems). Concentrations were determined using the standard curves generated with known concentrations of IL-6.
Several pro-inflammatory cytokines are elevated in sepsis, cancer, ageing and other catabolic diseases. They are thought to trigger muscle wasting (partly) through NF-kB pathways. […] In these screening experiments, the effects of QSM on myotube IL-6 production were assessed using a sandwich ELISA.
In a further set of experiments, using similar methods as described for the screening experiments, a number of QSPs were tested for a dose response relation in C2C12 cells.

C2C12 cells = test: Co-treatment of C2C12 cells with QSP and ala-scan derivative, IL-6 response; assay type: cell-based, mouse; conditions: for effect on Q055 mediated IL-6 induction: Q055 75 μM plus derivative 90 μM
Text: Means±SEM, n=6. * P<0.05; ** P<0.01, *** P<0.001; paired Student's t test.

[5] = day 3, placebo set to 1.0, Q184 at 1 μM
[6] = day 12, placebo set to 1.0, Q184 at 1 μM

CCCC(O)CC(=O)N[C@H]1CCOC1=O (some centres unmarked) [3-OH-C6-HSL]
Effect: viability (hit direction) (C2C12 myoblasts [1]): increasing hit; also recorded: ↑ viability

C[C@]12OC[C@H](O)[C@@]1(O)O[B-](O)(O)O2 [AI-2]
Effect: viability (hit direction) (C2C12 myoblasts [1]): increasing both C2C12 viability and GDF15 production
GDF15 secretion, effect relative to median [2]: 216%
Effect: GDF15 (hit direction) [2]: increased GDF15 production
differentiation capacity relative to the median of all samples (C2C12 myoblasts [3]): 145%
Effect: differentiation (hit direction) (C2C12 myoblasts [3]): increased myotube formation; also recorded: ↑ differentiation

CCCCCC(=O)N[C@H]1CCOC1=O [C6-HSL]
Effect: GDF15 (hit direction) [2]: increased GDF15 production

C[S+](C)[O-] [DMSO, dimethylsulfoxide, reference compound]
Activity index (C. elegans; [5]): 0.60
Asymmetry (C. elegans; [5]): 3.11
Body wave number (C. elegans; [5]): 2.04
Brush stroke (C. elegans; [5]): 0.68
Curling (C. elegans; [5]): 1.55
Stretch (C. elegans; [5]): 1.10
Travel speed (C. elegans; [5]): 0.85
Wave initiation rate (C. elegans; [5]): 0.58
Activity index (C. elegans; [6]): 0.31
Asymmetry (C. elegans; [6]): 2.50
Body wave number (C. elegans; [6]): 2.59
Brush stroke (C. elegans; [6]): 0.48
Curling (C. elegans; [6]): 0.08
Stretch (C. elegans; [6]): 0.91
Travel speed (C. elegans; [6]): 0.49
Wave initiation rate (C. elegans; [6]): 0.39

AGTKPQGKPASNLVECVFSLFKKCN [Q011]
Effect: viability (hit direction) (C2C12 myoblasts [1]): decreasing viability hits
Effect: GDF15 (hit direction) [2]: increased GDF15 production

AIFILAS [Q013]
differentiation capacity relative to the median of all samples (C2C12 myoblasts [3]): 71%

AKDEH [Q015]
Effect: viability (hit direction) (C2C12 myoblasts [1]): decreasing viability hits
Effect: GDF15 (hit direction) [2]: increased GDF15 production

ALILTLVS [Q017]
Effect: viability (hit direction) (C2C12 myoblasts [1]): decreasing viability hits

ARNQT [Q018]
Effect: viability (hit direction) (C2C12 myoblasts [1]): decreasing viability hits

DLRGVPNPWGWIFGR [Q030]
Effect: viability (hit direction) (C2C12 myoblasts [1]): decreasing viability hits

DLRNIFLKIKFKKK [Q031]
Effect: viability (hit direction) (C2C12 myoblasts [1]): decreasing viability hits

DSVCASYF [Q040]
Effect: viability (hit direction) (C2C12 myoblasts [1]): decreasing viability hits

ERPVG [Q052]
Effect: viability (hit direction) (C2C12 myoblasts [1]): increasing hits; also recorded: increasing viability hit
Effect: inflammation (IL-6 production, hit direction) [4]: decreased the IL-6 production; also recorded: ↓ inflammation

ESRLPKIRFDFIFPRKK [Q054]
relative IL-6 production ([4]; QSM 1 μM, 24 h, relative to median of all QSM): 51%
Effect: inflammation (IL-6 production, hit direction) [4]: decreased the IL-6 production; also recorded: ↓ inflammation

ESRVSRIIADFLFQRKK (Synthetic QSP055-A9)
effect on Q055 mediated IL-6 induction (C2C12 cells): antagonistic effect

FLVMFLSG [Q093]
GDF15 secretion, effect relative to median [2]: 137%
Effect: GDF15 (hit direction) [2]: increased GDF15 production

GKAEF [Q099]
GDF15 secretion, effect relative to median [2]: 80%
Effect: GDF15 (hit direction) [2]: decreased the GDF15 production

GLWEDILYSLNIIKHNNTKGLHHPIQL [Q101]
Effect: viability (hit direction) (C2C12 myoblasts [1]): increasing hits; also recorded: ↑ viability

GSLSTFFALFNRSFTQALGK (Synthetic Q176-A9)
effect on Q176 mediated IL-6 induction (C2C12 cells; Q176 50 μM plus derivative 60 μM): inhibiting the Q176 mediated IL-6 induction

LFSLVLAG [Q132]
Effect: viability (hit direction) (C2C12 myoblasts [1]): decreasing viability hits

LPFEF [Q134]
Effect: viability (hit direction) (C2C12 myoblasts [1]): decreasing viability hits

MAGNSSNFIHKIKQIFTHR [Q138]
Effect: viability (hit direction) (C2C12 myoblasts [1]): increasing hits; also recorded: ↑ viability

MKAEH [Q140]
Effect: viability (hit direction) (C2C12 myoblasts [1]): increasing hits; also recorded: ↑ viability

NNWNN [Q019]
Effect: differentiation (hit direction) (C2C12 myoblasts [3]): increased myotube formation; also recorded: ↑ differentiation

QNSPNIFGQWM [Q097]
Effect: viability (hit direction) (C2C12 myoblasts [1]): decreasing viability hits

SDLPFEH [Q164]
Effect: viability (hit direction) (C2C12 myoblasts [1]): increasing hits; also recorded: ↑ viability

SRNAT [Q192, SRNAT]
viability relative to the median of all samples (MTT) (C2C12 myoblasts [1]; QSM 1 μM, 24 h, C2C12 myoblasts, n=2): 120%
Effect: viability (hit direction) (C2C12 myoblasts [1]): strong increasing hit; also recorded: ↑ viability

SRVSAIILDFLFQRKK (Synthetic Q055-A6)
effect on Q055 mediated IL-6 induction (C2C12 cells): inhibited the Q055 mediated IL-6 induction

YSPWTNF [Q007]
Effect: inflammation (IL-6 production, hit direction) [4]: increased IL-6 production; also recorded: ↑ inflammation

YSTCDFIM [Q148]
GDF15 secretion, effect relative to median [2]: 80%
